Tests used:
[1] = xn = mol fraction of the nth substance listed; conditions: 100 kPa, Liquid; for speed of sound: Frequency=2 MHz, Linear variable-path acoustic interferometer; for mass density: Vibrating tube method
[2] = 100 kPa, Liquid; for speed of sound: Frequency=2 MHz, Linear variable-path acoustic interferometer; for mass density: Vibrating tube method

CCCCCCCCCO [nonan-1-ol] + Cc1cccc(Cl)c1
[1], x2 = 0
Conditions | mass density [kg/m3] | speed of sound [m/s]
293.15 K | 828 | 1380.5
298.15 K | 824 | 1364.7
303.15 K | 821 | 1348.1
308.15 K | 818 | 1330.5

ClCCCl [1,2-dichloroethane]
[2]
Conditions | mass density [kg/m3] | speed of sound [m/s]
293.15 K | 1253 | 1212.5
298.15 K | 1246 | 1194.2
303.15 K | 1238 | 1174.1
308.15 K | 1231 | 1155.6

Cc1ccccc1Cl [2-chlorotoluene]
[2]
Conditions | mass density [kg/m3] | speed of sound [m/s]
293.15 K | 1082 | 1317
298.15 K | 1077 | 1299.7
303.15 K | 1073 | 1283.9
308.15 K | 1068 | 1265.8

CCCCCCCCCO [nonan-1-ol]
[2]
Conditions | mass density [kg/m3] | speed of sound [m/s]
293.15 K | 828 | 1380.5
298.15 K | 824 | 1364.7
303.15 K | 821 | 1348.1
308.15 K | 818 | 1330.5

Cc1ccc(Cl)cc1 [4-chlorotoluene]
[2]
Conditions | mass density [kg/m3] | speed of sound [m/s]
293.15 K | 1069 | 1306.4
298.15 K | 1065 | 1288.2
303.15 K | 1060 | 1270
308.15 K | 1054 | 1252.1

CCCCCCCCCO [nonan-1-ol] + Cc1ccc(Cl)cc1
[1], x2 = 0
Conditions | mass density [kg/m3] | speed of sound [m/s]
293.15 K | 828 | 1380.5
298.15 K | 824 | 1364.7
303.15 K | 821 | 1348.1
308.15 K | 818 | 1330.5

Cc1cccc(Cl)c1 [3-chlorotoluene]
[2]
Conditions | mass density [kg/m3] | speed of sound [m/s]
293.15 K | 1072 | 1313.8
298.15 K | 1067 | 1296.5
303.15 K | 1063 | 1279.5
308.15 K | 1058 | 1261.2

CCCCCCCCCO [nonan-1-ol] + Cc1ccccc1Cl
[1], x2 = 0
Conditions | mass density [kg/m3] | speed of sound [m/s]
293.15 K | 828 | 1380.5
298.15 K | 824 | 1364.7
303.15 K | 821 | 1348.1
308.15 K | 818 | 1330.5

ClCCCl [1,2-dichloroethane] + CCCCCCCCCO
[1], x1 = 1
Conditions | mass density [kg/m3] | speed of sound [m/s]
293.15 K | 1253 | 1212.5
298.15 K | 1246 | 1194.2
303.15 K | 1238 | 1174.1
308.15 K | 1231 | 1155.6

Reference: the NIST ThermoML archive (doi:10.1016/j.jct.2017.11.003)
